Assay results reported in US20260250290A1 (BRISTOL-MYERS SQUIBB COMPANY, priority 2023, published 2026).
Structures can show the parent of a compound that is named as a salt.

The compounds below were run against T1, full length SGK1 (Homo sapiens, UniProt O00141) (assay: SGK1 inhibition Assay A (Caliper LabChip electrophoretic separation of fluorescent peptide substrate and phosphorylated product)). Settings: Assay A; 20 μM ATP, 40 min incubation; read-out: SGK1 IC50.
T1 construct: 125 μM full length SGK1 (Life Technologies Part #PR7358A); purchased Life Technologies PR7358A
T1 sequence (O00141 1-431): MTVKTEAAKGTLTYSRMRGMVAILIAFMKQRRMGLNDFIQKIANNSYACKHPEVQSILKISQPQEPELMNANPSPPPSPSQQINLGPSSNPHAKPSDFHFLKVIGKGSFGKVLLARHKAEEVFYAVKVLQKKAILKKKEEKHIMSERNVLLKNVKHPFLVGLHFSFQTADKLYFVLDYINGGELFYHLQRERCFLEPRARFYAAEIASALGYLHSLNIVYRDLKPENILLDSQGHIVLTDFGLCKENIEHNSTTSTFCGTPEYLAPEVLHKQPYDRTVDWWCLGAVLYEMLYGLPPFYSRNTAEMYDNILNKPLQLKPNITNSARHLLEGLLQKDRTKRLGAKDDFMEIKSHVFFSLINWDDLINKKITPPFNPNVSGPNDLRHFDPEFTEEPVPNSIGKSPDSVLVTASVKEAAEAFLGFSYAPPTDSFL
Assay type: biochemical
In the case of `Cc1cc(-c2cc(N3CCC[C@@H](NC(=O)c4sc(Cl)cc4OCCN(C)C)C3)c3c(N)ncnn23)cn(CC(C)C)c1=O` [Example 694, (R)—N-(1-(4-amino-7-(1-isobutyl-5-methyl-6-oxo-1,6-dihydropyridin-3-yl)pyrrolo[2,1-f][1,2,4]triazin-5-yl)piperidin-3-yl)-5-chloro-3-(2-(dimethylamino)ethoxy)thiophene-2-carboxamide], the IC50 is reported as 103 nM.
Work on `Nc1ncnn2c(C#Cc3ccncc3)cc(N3CCC[C@@H](NC(=O)c4ccc(Cl)s4)C3)c12` [Example 695, (R)—N-(1-(4-amino-7-(pyridin-4-ylethynyl)pyrrolo[2,1-f][1,2,4]triazin-5-yl)piperidin-3-yl)-5-chlorothiophene-2-carboxamide, TFA salt] yielded an IC50 of 242 nM.
For `N#Cc1ccc(C(=O)N[C@@H]2CCCN(c3cc(C#N)n4ncnc(N)c34)C2)s1` [Example 696, (R)—N-(1-(4-amino-7-cyanopyrrolo[2,1-f][1,2,4]triazin-5-yl)piperidin-3-yl)-5-cyanothiophene-2-carboxamide], the IC50 was 80 nM.
`CC(=O)N1CC=C(c2cc(N3CCC[C@@H](NC(=O)c4cccc(OCCN5CCOCC5)n4)C3)c3c(N)ncnn23)C1` [Example 700, (R)—N-(1-(7-(1-acetyl-2,5-dihydro-1H-pyrrol-3-yl)-4-aminopyrrolo[2,1-f][1,2,4]triazin-5-yl)piperidin-3-yl)-6-(2-morpholinoethoxy)picolinamide] was tested, and the IC50 was 25 nM.
`CC(=O)N1CC=C(c2cc(N3CCC[C@@H](NC(=O)c4cccc(OCCN5CCN(C)CC5)n4)C3)c3c(N)ncnn23)C1` [Example 701, (R)-N-(1-(7-(1-acetyl-2,5-dihydro-1H-pyrrol-3-yl)-4-aminopyrrolo[2,1-f][1,2,4]triazin-5-yl)piperidin-3-yl)-6-(2-(4-methylpiperazin-1-yl)ethoxy)picolinamide] showed an IC50 of 11 nM.
`CC(=O)N1CC=C(c2cc(N3CCC[C@@H](NC(=O)c4cccc(OCCN(C)C)n4)C3)c3c(N)ncnn23)C1` [Example 702, (R)-N-(1-(7-(1-acetyl-2,5-dihydro-1H-pyrrol-3-yl)-4-aminopyrrolo[2,1-f][1,2,4]triazin-5-yl)piperidin-3-yl)-6-(2-(dimethylamino)ethoxy) picolinamide] was tested, and the IC50 was 12 nM.
Work on `CC(=O)N1CC=C(c2cc(N3CCC[C@@H](NC(=O)c4cccc(N5CCOCC5)n4)C3)c3c(N)ncnn23)C1` [Example 703, (R)-N-(1-(7-(1-acetyl-2,5-dihydro-1H-pyrrol-3-yl)-4-aminopyrrolo[2,1-f][1,2,4]triazin-5-yl)piperidin-3-yl)-6-morpholinopicolinamide] yielded an IC50 of 29 nM.
`CC(=O)N1CC=C(c2cc(N3CCC[C@@H](NC(=O)c4cccc(N5CCN(C)CC5)n4)C3)c3c(N)ncnn23)C1` [Example 704, (R)-N-(1-(7-(1-acetyl-2,5-dihydro-1H-pyrrol-3-yl)-4-aminopyrrolo[2,1-f][1,2,4]triazin-5-yl)piperidin-3-yl)-6-(4-methylpiperazin-1-yl)picolinamide] showed an IC50 of 11 nM.
`CC(=O)N1CC=C(c2cc(N3CCC[C@@H](NC(=O)C4CC5(C4)CC(F)(F)C5)C3)c3c(N)ncnn23)C1` [Example 705, (R)-N-(1-(7-(1-acetyl-2,5-dihydro-1H-pyrrol-3-yl)-4-aminopyrrolo[2,1-f][1,2,4]triazin-5-yl)piperidin-3-yl)-6,6-difluorospiro[3.3]heptane-2-carboxamide] showed an IC50 of 760 nM.
Compound `CC(=O)N1CC=C(c2cc(N3CCC[C@@H](NC(=O)c4ccnc(OCCN(C)C)c4)C3)c3c(N)ncnn23)C1` [Example 706, (R)-N-(1-(7-(1-acetyl-2,5-dihydro-1H-pyrrol-3-yl)-4-aminopyrrolo[2,1-f][1,2,4]triazin-5-yl)piperidin-3-yl)-2-(2-(dimethylamino)ethoxy) isonicotinamide] has an IC50 of 57 nM.
`CC(=O)N1CC=C(c2cc(N3CCC[C@@H](NC(=O)c4ccnc(OCCN5CCOCC5)c4)C3)c3c(N)ncnn23)C1` [Example 707, (R)-N-(1-(7-(1-acetyl-2,5-dihydro-1H-pyrrol-3-yl)-4-aminopyrrolo[2,1-f][1,2,4]triazin-5-yl)piperidin-3-yl)-2-(2-morpholinoethoxy) isonicotinamide] was tested, and the IC50 was 68 nM.
`CC(=O)N1CC=C(c2cc(N3CCC[C@@H](NC(=O)c4nccn4C)C3)c3c(N)ncnn23)C1` [Example 708] was tested, and the IC50 was 494 nM.
For `CC(=O)N1CC=C(c2cc(N3CCC[C@@H](NC(=O)c4cccc(OC5CCN(C)CC5)n4)C3)c3c(N)ncnn23)C1` [Example 709, (R)-N-(1-(7-(1-acetyl-2,5-dihydro-1H-pyrrol-3-yl)-4-aminopyrrolo[2,1-f][1,2,4]triazin-5-yl)piperidin-3-yl)-6-((1-methylpiperidin-4-yl)oxy)picolinamide], the IC50 was 16 nM.
For `CC(=O)N1CC=C(c2cc(N3CCC[C@@H](NC(=O)c4cccc(C5CC5)n4)C3)c3c(N)ncnn23)C1` [Example 710, (R)-N-(1-(7-(1-acetyl-2,5-dihydro-1H-pyrrol-3-yl)-4-aminopyrrolo[2,1-f][1,2,4]triazin-5-yl)piperidin-3-yl)-6-cyclopropylpicolinamide,], the IC50 was 13 nM.
`CC(=O)N1CC=C(c2cc(N3CCC[C@@H](NC(=O)C4CC(F)(F)C4)C3)c3c(N)ncnn23)C1` [Example 711, (R)-N-(1-(7-(1-acetyl-2,5-dihydro-1H-pyrrol-3-yl)-4-aminopyrrolo[2,1-f][1,2,4]triazin-5-yl)piperidin-3-yl)-3,3-difluorocyclobutane-1-carboxamide] gave an IC50 of 997 nM.
`CC(=O)N1CC=C(c2cc(N3CCC[C@@H](NC(=O)C4CCC(F)(F)C4)C3)c3c(N)ncnn23)C1` (stereo partly drawn) [Example 712, N-((R)-1-(7-(1-acetyl-2,5-dihydro-1H-pyrrol-3-yl)-4-aminopyrrolo[2,1-f][1,2,4]triazin-5-yl)piperidin-3-yl)-3,3-difluorocyclopentane-1-carboxamide] was tested, and the IC50 was 1300 nM.
Work on `CC(=O)N1CC=C(c2cc(N3CCC[C@@H](NC(=O)c4ccnc(OCCN5CCN(C)CC5)c4)C3)c3c(N)ncnn23)C1` [Example 713] yielded an IC50 of 59 nM.
`CC(=O)N1CC=C(c2cc(N3CCC[C@@H](NC(=O)c4ccc(C#N)s4)C3)c3c(N)ncnn23)C1` [Example 714, (R)-N-(1-(7-(1-acetyl-2,5-dihydro-1H-pyrrol-3-yl)-4-aminopyrrolo[2,1-f][1,2,4]triazin-5-yl)piperidin-3-yl)-5-cyanothiophone-2-carboxamide] gave an IC50 of 7 nM.
`COc1cccc(C(=O)N[C@@H]2CCCN(c3cc(C4=CCN(C(C)=O)C4)n4ncnc(N)c34)C2)n1` [Example 715, (R)-N-(1-(7-(1-acetyl-2,5-dihydro-1H-pyrrol-3-yl)-4-aminopyrrolo[2,1-f][1,2,4]triazin-5-yl)piperidin-3-yl)-6-methoxypicolinamide] gave an IC50 of 22 nM.
Work on `COc1cc(C(=O)N[C@@H]2CCCN(c3cc(C4=CCN(C(C)=O)C4)n4ncnc(N)c34)C2)ccn1` [Example 716, (R)-N-(1-(7-(1-acetyl-2,5-dihydro-1H-pyrrol-3-yl)-4-aminopyrrolo[2,1-f][1,2,4]triazin-5-yl)piperidin-3-yl)-2-methoxyisonicotinamide] yielded an IC50 of 23 nM.
`CC(=O)N1CC=C(c2cc(N3CCC[C@@H](NC(=O)c4ccnc(N(C)C)c4)C3)c3c(N)ncnn23)C1` [Example 717] showed an IC50 of 39 nM.
`COc1ncccc1C(=O)N[C@@H]1CCCN(c2cc(C3=CCN(C(C)=O)C3)n3ncnc(N)c23)C1` [Example 718, (R)-N-(1-(7-(1-acetyl-2,5-dihydro-1H-pyrrol-3-yl)-4-aminopyrrolo[2,1-f][1,2,4]triazin-5-yl)piperidin-3-yl)-2-methoxynicotinamide] gave an IC50 of 26 nM.
`CC(=O)N1CC=C(c2cc(N3CCC[C@@H](NC(=O)c4csc(Cl)c4)C3)c3c(N)ncnn23)C1` [Example 719] gave an IC50 of 5 nM.
`CC(=O)N1CC=C(c2cc(N3CCC[C@@H](NC(=O)c4csc(C)c4)C3)c3c(N)ncnn23)C1` [Example 720, (R)-N-(1-(7-(1-acetyl-2,5-dihydro-1H-pyrrol-3-yl)-4-aminopyrrolo[2,1-f][1,2,4]triazin-5-yl)piperidin-3-yl)-5-methylthiophene-3-carboxamide] was tested, and the IC50 was 5 nM.
Compound `COc1cscc1C(=O)N[C@@H]1CCCN(c2cc(C3=CCN(C(C)=O)C3)n3ncnc(N)c23)C1` [Example 721, (R)-N-(1-(7-(1-acetyl-2,5-dihydro-1H-pyrrol-3-yl)-4-aminopyrrolo[2,1-f][1,2,4]triazin-5-yl)piperidin-3-yl)-4-methoxythiophene-3-carboxamide] has an IC50 of 10 nM.
`CC(=O)N1CC=C(c2cc(N3CCC[C@@H](NC(=O)c4cccnc4OCCN4CCN(C)CC4)C3)c3c(N)ncnn23)C1` [Example 722, (R)-N-(1-(7-(1-acetyl-2,5-dihydro-1H-pyrrol-3-yl)-4-aminopyrrolo[2,1-f][1,2,4]triazin-5-yl)piperidin-3-yl)-2-(2-(4-methylpiperazin-1-yl)ethoxy)nicotinamide] was tested, and the IC50 was 114 nM.
`CC(=O)N1CC=C(c2cc(N3CCC[C@@H](NC(=O)c4cccnc4OCCN(C)C)C3)c3c(N)ncnn23)C1` [Example 723, (R)-N-(1-(7-(1-acetyl-2,5-dihydro-1H-pyrrol-3-yl)-4-aminopyrrolo[2,1-f][1,2,4]triazin-5-yl)piperidin-3-yl)-2-(2-(dimethylamino)ethoxy) nicotinamide] was tested, and the IC50 was 267 nM.
`CC(=O)N1CC=C(c2cc(N3CCC[C@@H](NC(=O)c4cccc(N(C)C)n4)C3)c3c(N)ncnn23)C1` [Example 725, (R)-N-(1-(7-(1-acetyl-2,5-dihydro-1H-pyrrol-3-yl)-4-aminopyrrolo[2,1-f][1,2,4]triazin-5-yl)piperidin-3-yl)-6-(dimethylamino) picolinamide] showed an IC50 of 26 nM.
